Measured values reported in patent publication US8551453B2, “Aromatic triamide-lanthanide complexes” (The Regents of the University of California, priority 2003, dated 2013).

Columns and labels:
Format in all cases: physicochemical
[1] = Protonation constants of the ligand by spectrophotometric titration; details: free ligand; for PKa: IAM
[2] = Stability constants of the Eu complex by spectrophotometric titration
Method: FIG. 3 Spectrophotometric titration of a 1:1 ratio Eu:H22MeTIAM (9A): I=0.1, 25° C., optical path=1 cm.
(§1) The stability constants of the lanthanide complexes formed with the ligand H22TAMDIAM(9A) were estimated through spectrophotometric titrations.
(§2) The stability constants of the Eu and Tb complexes formed with the ligand H22TAMDIAM (9A) have been calculated form these experiments and the results are reported in the table.

[3] = Stability constants of the Tb complex by spectrophotometric titration
Excerpt: as §1, §2

H4H(2,2)TIAM [Compound 9A]
Proton Affinity Log […]011 ([1]; cumulative protonation constant, 1 proton (phenolic)): 8.58(2) | Proton Affinity Log […]012 ([1]; cumulative protonation constant, 2 protons): 15.17(3) | Proton Affinity Log […]013 ([1]; cumulative protonation constant, 3 protons): 20.38(4) | Proton Affinity Log […]014 ([1]; cumulative protonation constant, 4 protons): 24.46(6) | PKa ([1]; first phenolic proton (line Log […]011)): 8.58 | PKa ([1]; fourth phenolic proton (line Log […]014)): 4.08 | PKa ([1]; second phenolic proton (line Log […]012)): 6.59 | PKa ([1]; third phenolic proton (line Log […]013)): 5.21 | Log[…]11-1 ([2]; 1:1 Eu:ligand, I=0.1, 25° C.): 11.04(2) | Log[…]11-2 ([2]; 1:1 Eu:ligand, I=0.1, 25° C.): 1.98(10) | Log[…]110 ([2]; 1:1 Eu:ligand, I=0.1, 25° C.): 17.29(1) | pKa ([2]; line Log[…]11-1): 6.25 | pKa ([2]; line Log[…]11-2): 9.06 | pM ([2]; n = 3): Eu, pM = 18.2, n = 3 | Log[…]11-1 [3]: 12.60(7) | Log[…]11-2 [3]: 3.62(9) | Log[…]110 [3]: 17.85(3) | pKa ([3]; line Log[…]11-1): 5.25 | pKa ([3]; line Log[…]11-2): 8.98 | pM ([3]; n = 3): Tb, pM = 19.7,n = 3
